From ChEMBL document CHEMBL5465560, “Selectivity Literature for EUbOPEN Chemogenomic Library” (2024)
One block for each molecule: values may come before it.

Assays:
[1] = target: T1, Ephrin type-A receptor 3 (Homo sapiens) (UniProt P29320); conditions: at 10 µM
T1 sequence (whole entry): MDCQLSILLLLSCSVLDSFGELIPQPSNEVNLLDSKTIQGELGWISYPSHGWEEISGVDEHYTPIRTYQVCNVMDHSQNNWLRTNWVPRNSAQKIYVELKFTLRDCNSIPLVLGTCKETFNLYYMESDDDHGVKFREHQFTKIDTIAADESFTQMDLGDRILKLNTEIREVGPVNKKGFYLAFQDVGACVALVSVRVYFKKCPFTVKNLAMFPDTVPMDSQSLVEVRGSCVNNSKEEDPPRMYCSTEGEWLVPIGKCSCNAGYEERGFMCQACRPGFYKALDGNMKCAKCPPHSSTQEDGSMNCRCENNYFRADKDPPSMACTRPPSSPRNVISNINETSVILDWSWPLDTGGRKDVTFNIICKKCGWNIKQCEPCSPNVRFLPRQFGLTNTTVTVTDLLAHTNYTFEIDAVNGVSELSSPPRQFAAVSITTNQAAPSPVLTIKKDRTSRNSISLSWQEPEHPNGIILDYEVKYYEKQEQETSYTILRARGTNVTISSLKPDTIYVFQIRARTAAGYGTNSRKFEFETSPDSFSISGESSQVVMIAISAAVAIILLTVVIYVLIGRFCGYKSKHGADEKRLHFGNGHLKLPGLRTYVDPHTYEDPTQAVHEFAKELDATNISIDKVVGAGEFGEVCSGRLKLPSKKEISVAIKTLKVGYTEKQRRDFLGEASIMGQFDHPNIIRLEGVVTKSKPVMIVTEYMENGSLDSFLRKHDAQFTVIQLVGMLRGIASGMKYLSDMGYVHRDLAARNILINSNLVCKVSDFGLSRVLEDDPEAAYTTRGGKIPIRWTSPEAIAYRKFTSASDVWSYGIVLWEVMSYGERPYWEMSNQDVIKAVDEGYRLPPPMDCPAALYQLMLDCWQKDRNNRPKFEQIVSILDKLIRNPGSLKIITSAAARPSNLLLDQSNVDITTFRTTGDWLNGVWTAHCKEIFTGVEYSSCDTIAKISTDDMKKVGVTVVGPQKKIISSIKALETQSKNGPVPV

[2] = target: Calcium/calmodulin-dependent protein kinase type II subunit delta (Homo sapiens) (UniProt Q13557); experiment: Selectivity interaction (ActivX KiNativ screen (kinase selectivity in THP-1 cell lysates)) EUB0000639a CAMK2D; assay type: subcellular; conditions: lysate, at 5 µM
Calcium/calmodulin-dependent protein kinase type II subunit delta (Homo sapiens), sequence (Q13557 whole entry): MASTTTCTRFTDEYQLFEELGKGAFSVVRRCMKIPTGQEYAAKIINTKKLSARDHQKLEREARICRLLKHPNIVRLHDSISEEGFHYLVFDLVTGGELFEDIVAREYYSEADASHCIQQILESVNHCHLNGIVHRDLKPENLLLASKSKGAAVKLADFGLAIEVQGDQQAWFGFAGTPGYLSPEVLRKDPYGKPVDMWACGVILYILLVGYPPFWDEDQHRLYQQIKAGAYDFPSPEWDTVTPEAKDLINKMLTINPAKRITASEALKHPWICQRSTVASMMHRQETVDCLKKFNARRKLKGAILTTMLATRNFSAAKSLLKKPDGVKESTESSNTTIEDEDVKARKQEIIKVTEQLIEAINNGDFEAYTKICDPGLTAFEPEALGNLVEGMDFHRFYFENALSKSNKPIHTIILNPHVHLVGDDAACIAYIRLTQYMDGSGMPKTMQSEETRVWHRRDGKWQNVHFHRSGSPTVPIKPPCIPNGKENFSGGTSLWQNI

[3] = target: T2, Dual specificity mitogen-activated protein kinase kinase 6 (Homo sapiens) (UniProt P52564); experiment: Selectivity interaction (ActivX KiNativ screen (kinase selectivity in THP-1 cell lysates)) EUB0000639a MAP2K6; assay type: subcellular; conditions: lysate, at 1 µM
T2 sequence (whole entry): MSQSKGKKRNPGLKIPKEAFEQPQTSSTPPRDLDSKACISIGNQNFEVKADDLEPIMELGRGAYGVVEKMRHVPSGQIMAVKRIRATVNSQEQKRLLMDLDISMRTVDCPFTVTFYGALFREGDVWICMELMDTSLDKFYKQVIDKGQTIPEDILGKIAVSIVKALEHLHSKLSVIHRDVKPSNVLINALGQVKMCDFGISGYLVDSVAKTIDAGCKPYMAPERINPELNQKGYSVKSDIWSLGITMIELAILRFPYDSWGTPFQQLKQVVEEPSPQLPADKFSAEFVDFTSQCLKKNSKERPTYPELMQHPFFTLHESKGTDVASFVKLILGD

[4] = target: Dual specificity tyrosine-phosphorylation-regulated kinase 1A (Homo sapiens, UniProt Q13627); experiment: Selectivity interaction (Kinase panel (literature)) EUB0001199aCl DYRK1A; conditions: at 1 µM
[5] = target: Tyrosine-protein kinase FRK (Homo sapiens) (UniProt P42685); experiment: Selectivity interaction (Kinase panel (Z-LYTE Assay)) EUB0001632a FRK; conditions: at 10 µM
Tyrosine-protein kinase FRK (Homo sapiens), sequence (P42685 whole entry): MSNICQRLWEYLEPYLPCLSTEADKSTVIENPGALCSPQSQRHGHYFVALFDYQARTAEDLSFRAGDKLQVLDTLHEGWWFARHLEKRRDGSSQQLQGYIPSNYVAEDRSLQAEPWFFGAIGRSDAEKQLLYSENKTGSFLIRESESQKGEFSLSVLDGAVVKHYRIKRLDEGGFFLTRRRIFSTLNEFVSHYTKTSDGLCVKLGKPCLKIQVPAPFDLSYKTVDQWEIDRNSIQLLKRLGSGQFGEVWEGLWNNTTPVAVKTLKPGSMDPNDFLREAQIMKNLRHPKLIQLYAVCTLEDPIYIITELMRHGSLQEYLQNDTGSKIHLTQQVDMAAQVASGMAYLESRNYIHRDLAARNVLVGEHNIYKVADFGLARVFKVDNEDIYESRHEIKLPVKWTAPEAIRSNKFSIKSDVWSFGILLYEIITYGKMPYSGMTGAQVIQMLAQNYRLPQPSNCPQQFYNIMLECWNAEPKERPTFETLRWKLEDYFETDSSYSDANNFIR

[6] = target: Cyclin-dependent kinase 2 (Homo sapiens, UniProt P24941); conditions: at 10 µM
[7] = target: T3, Serine/threonine-protein kinase BRSK2 (Homo sapiens) (UniProt Q8IWQ3); experiment: Selectivity interaction (KinomeScan (DiscoverX)) EUB0000229b BRSK2; conditions: at 10 µM
T3 sequence (whole entry): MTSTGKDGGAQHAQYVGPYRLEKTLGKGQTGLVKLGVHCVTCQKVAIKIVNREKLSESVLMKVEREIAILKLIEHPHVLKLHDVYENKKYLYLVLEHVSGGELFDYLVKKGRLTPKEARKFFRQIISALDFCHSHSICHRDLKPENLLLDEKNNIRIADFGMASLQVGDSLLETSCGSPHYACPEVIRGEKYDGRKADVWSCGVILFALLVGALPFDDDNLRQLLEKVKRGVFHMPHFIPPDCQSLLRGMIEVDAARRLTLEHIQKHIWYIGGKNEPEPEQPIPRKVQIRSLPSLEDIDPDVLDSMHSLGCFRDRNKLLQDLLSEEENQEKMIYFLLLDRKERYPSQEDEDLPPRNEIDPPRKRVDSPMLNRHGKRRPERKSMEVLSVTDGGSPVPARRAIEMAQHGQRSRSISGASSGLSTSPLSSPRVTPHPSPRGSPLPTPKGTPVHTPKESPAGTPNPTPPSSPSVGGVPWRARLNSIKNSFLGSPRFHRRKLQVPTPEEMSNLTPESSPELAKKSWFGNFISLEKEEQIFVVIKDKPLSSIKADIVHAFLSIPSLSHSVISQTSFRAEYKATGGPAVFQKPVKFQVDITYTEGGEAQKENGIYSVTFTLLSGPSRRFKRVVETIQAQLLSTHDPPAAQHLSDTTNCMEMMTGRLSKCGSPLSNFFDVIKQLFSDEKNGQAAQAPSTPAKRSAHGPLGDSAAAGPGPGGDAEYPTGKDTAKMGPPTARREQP

Ephrin type-A receptor 4 = Ephrin type-A receptor 4 (Homo sapiens, UniProt P54764); experiment: Selectivity interaction (Upstate Kinase Profiler service (Millipore)) EUB0000056c EPHA4; conditions: at 1 µM
Ephrin type-A receptor 4, sequence (P54764 whole entry): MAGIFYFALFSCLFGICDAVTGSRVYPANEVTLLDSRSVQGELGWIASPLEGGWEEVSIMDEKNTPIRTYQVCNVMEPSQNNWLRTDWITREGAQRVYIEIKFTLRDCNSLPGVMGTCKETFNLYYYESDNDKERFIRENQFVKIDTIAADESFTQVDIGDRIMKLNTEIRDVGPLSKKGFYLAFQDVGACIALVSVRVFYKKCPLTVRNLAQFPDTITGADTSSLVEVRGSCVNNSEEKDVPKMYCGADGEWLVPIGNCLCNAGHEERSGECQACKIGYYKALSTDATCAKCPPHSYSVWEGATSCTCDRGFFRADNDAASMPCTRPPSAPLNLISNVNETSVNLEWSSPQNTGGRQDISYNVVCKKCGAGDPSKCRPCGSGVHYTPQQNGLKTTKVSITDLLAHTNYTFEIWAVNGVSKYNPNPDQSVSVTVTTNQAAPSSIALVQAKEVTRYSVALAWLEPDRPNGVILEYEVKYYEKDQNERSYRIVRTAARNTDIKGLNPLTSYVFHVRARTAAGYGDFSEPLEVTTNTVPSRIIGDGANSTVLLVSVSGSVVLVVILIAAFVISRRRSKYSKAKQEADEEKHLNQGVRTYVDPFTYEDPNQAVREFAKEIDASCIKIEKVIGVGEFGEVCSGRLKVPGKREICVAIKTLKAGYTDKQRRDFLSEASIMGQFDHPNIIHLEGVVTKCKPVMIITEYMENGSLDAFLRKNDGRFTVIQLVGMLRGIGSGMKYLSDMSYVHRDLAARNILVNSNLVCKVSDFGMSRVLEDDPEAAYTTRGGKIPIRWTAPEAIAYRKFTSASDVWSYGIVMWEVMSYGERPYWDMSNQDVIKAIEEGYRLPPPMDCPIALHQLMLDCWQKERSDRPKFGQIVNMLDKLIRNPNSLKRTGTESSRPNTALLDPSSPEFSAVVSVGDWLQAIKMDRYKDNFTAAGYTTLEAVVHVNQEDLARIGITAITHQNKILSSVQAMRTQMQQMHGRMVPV

[8] = target: Serine/threonine-protein kinase OSR1 (Homo sapiens) (UniProt O95747); experiment: Selectivity interaction (KinomeScan (DiscoverX)) EUB0001619a OXSR1; conditions: at 1 µM
Serine/threonine-protein kinase OSR1 (Homo sapiens), sequence (O95747 2-527 limits assumed): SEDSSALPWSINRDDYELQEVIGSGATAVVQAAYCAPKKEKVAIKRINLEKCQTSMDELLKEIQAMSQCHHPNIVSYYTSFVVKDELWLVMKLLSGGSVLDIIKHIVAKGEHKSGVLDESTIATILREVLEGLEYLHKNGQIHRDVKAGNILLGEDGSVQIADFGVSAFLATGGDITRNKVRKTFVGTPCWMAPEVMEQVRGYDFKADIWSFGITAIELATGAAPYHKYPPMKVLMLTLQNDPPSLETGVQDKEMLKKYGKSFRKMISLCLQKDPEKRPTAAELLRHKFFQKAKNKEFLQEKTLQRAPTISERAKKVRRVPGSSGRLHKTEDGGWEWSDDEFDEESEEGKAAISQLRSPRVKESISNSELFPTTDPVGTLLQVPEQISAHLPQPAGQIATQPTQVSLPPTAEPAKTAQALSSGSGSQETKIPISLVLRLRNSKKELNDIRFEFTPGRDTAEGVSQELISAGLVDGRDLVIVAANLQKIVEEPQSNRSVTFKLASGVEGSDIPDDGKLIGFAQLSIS

[9] = target: Cyclin-dependent kinase 17 (Homo sapiens) (UniProt Q00537); experiment: Selectivity interaction (ActivX KiNativ screen (ex vivo kinase selectivity in human PBMCs)) EUB0001619a CDK17; assay type: cell-based; conditions: PBMC, at 1 µM
Cyclin-dependent kinase 17 (Homo sapiens), sequence (Q00537 whole entry, looked up): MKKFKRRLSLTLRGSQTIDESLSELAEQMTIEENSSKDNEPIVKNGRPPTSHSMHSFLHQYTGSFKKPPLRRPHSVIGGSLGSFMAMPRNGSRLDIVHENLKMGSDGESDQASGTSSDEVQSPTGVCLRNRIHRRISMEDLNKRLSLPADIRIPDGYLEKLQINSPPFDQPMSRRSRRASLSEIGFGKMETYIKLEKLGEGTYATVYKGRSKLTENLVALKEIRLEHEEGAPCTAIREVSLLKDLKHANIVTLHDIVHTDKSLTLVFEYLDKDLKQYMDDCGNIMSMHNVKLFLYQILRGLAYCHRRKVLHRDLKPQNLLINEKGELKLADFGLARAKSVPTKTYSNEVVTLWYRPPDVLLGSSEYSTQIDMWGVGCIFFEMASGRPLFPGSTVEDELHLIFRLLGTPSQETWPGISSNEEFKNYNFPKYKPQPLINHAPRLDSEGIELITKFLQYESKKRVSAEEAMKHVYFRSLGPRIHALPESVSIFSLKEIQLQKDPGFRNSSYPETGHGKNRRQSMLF

[10] = target: Ribosomal protein S6 kinase alpha-4 (Homo sapiens) (UniProt O75676); experiment: Selectivity interaction (KinomeScan (DiscoverX)) EUB0000607a RPS6KA4; conditions: at 10 µM
Ribosomal protein S6 kinase alpha-4 (Homo sapiens), sequence (O75676 whole entry, looked up): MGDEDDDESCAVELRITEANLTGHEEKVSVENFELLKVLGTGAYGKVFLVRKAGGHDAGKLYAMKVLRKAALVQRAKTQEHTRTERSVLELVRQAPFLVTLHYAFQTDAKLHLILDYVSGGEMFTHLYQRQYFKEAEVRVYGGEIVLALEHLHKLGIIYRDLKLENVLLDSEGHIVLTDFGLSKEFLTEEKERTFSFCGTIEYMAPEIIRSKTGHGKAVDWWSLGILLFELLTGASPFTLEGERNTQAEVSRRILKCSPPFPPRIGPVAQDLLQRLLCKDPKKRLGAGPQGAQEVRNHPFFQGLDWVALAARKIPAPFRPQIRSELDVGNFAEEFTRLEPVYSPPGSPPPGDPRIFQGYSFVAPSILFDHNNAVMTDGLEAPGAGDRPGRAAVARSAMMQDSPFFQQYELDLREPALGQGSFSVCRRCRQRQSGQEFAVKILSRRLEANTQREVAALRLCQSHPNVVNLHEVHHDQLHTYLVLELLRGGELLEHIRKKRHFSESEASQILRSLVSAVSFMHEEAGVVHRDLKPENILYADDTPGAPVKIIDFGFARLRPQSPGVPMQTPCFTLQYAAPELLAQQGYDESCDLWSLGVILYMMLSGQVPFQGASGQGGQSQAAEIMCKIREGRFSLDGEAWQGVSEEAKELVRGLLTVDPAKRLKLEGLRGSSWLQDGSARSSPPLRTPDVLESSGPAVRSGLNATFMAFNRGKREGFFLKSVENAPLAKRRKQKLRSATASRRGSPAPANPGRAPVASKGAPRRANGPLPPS

[11] = target: Dual specificity mitogen-activated protein kinase kinase 2 (Homo sapiens) (UniProt P36507); experiment: Selectivity interaction (KinomeScan (DiscoverX)) EUB0000666a MAP2K2; conditions: at 10 µM
[12] = target: Tyrosine-protein kinase receptor UFO (Homo sapiens) (UniProt P30530); experiment: Selectivity interaction (KinomeScan (DiscoverX)) EUB0000666a AXL; conditions: at 10 µM
Tyrosine-protein kinase receptor UFO (Homo sapiens), sequence (P30530 whole entry): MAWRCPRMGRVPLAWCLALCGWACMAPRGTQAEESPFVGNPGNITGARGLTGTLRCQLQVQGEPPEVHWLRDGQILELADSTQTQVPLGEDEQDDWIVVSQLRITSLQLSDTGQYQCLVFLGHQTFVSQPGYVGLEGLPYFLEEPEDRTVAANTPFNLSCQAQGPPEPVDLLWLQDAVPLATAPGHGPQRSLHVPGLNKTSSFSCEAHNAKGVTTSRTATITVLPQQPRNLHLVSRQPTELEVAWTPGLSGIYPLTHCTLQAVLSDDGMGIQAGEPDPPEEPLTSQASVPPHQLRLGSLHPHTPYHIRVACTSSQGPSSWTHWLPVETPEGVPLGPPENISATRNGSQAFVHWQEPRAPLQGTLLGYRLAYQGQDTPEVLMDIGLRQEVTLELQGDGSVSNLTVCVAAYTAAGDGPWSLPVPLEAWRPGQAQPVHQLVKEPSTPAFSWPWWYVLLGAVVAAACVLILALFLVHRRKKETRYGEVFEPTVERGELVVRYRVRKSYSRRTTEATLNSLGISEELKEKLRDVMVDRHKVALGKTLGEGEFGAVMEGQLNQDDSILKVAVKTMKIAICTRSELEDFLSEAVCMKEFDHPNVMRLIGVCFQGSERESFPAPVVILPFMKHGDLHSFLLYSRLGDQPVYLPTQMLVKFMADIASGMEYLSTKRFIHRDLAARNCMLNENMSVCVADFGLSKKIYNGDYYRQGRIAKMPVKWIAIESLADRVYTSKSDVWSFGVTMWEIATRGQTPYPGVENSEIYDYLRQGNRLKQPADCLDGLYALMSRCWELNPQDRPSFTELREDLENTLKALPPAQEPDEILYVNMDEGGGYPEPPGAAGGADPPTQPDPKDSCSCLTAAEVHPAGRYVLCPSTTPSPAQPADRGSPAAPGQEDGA

Structure (SMILES): Cc1cc([C@@H](C)Nc2ccccc2C(=O)O)c2nc(N3CCOCC3)cc(=O)n2c1 [AZD-6482]
% of control [1]: 79%

% of inhibition [2]: 56.2%
% of inhibition [3]: 17%
Structure (SMILES): CC[C@@H]1[C@H](F)C(=O)N[C@@H]1COc1nccc2cc(C(N)=O)c(OC)cc12 [ZIMLOVISERTIB]

% of inhibition [4]: -3%
Structure (SMILES): CN1Cc2nccc(-c3cn(C)nc3-c3ccc(F)cc3)c2C1=O

% of control [5]: 5.87%
Structure (SMILES): Cn1cc(-n2cnc3c(NCc4nc5cc(Cl)c(Cl)cc5[nH]4)nc(N4CCOCC4)nc32)cn1

% of control [6]: 100%
Structure (SMILES): CCN(CC)CCCCNc1ncc2cc(-c3cc(OC)cc(OC)c3)c(NC(=O)NC(C)(C)C)nc2n1

Structure (SMILES): COc1cc(N(C)c2ccnc3ccc(C(F)(F)F)cc23)cc(OC)c1OC
% binding [7]: 90%

% of inhibition (Ephrin type-A receptor 4): 7%
Structure (SMILES): Cc1ccc(-c2ccc3c(ccc4sc5c(c43)NC[C@@H](C)NC5=O)n2)cn1

Structure (SMILES): N#Cc1cccc(-c2c[nH]c3ncnc(N4CCOCC4)c23)c1
% of control [8]: 90%
% of inhibition [9]: 25%

Structure (SMILES): CNC(=O)Nc1ccc(-c2nc(N3CC4CCC(C3)O4)c3cnn(C4CCC5(CC4)OCCO5)c3n2)cc1
% of control [10]: 90%

Structure (SMILES): O=C(NOC[C@H](O)CO)c1ccc(F)c(F)c1Nc1ccc(I)cc1F
% of control [11]: 0.2%
% of control [12]: 83%
